This is an account of results in ChEMBL document CHEMBL1140617, “Quantitative structure-activity relationship of sesquiterpene lactones with cytotoxic activity” (2007).

For the assay, the system named is KB. Nature of the assay: Cytotoxicity against human KB cells. The format is functional. Conditions: for EC50: Homo sapiens, KB, read-out: ED50 (the source's name).

Structures are written as SMILES. ≈ marks a conversion by molar mass, not a printed value.

Turning to `C=C1C(=O)O[C@H]2C/C(C)=C/C[C@@H](OC(C)=O)/C(C)=C/[C@@H](OC(C)=O)[C@H]12` [CHAMISSONIN DIACETATE], the pED50 worked out at 5.68 and the EC50 stood at 2.13 µg/mL.

For the compound `C=C1C(=O)O[C@@H]2[C@H]1[C@@H](O)C[C@H](C)[C@@H]1CCC(=O)[C@@]21C` [DESACETYLCONFERTIFLORIN], the pED50 was 5.06 and the EC50 stood at 2.3 µg/mL (≈ 8.7 µM).

In the case of `C=C1C(=O)O[C@@H]2/C=C(/C)[C@@]3(O)C=C[C@@](C)(C[C@@H](OC(=O)/C(=C\C)COC(C)=O)[C@@H]12)O3` [LIATRIN], the pED50 amounted to 5.41 and the EC50 stood at 1.62 µg/mL (≈ 3.87 µM).

For `C=C1C(=O)O[C@@H]2/C=C(/C)[C@@H](OC(C)=O)CC(O)/C(C)=C\[C@@H](OC(=O)C3(C)O[C@@H]3C)[C@@H]12` (single isomer, unassigned) [EUPACUNOXIN], the pED50 amounted to 5.3 and the EC50 was determined as 2.1 µg/mL (≈ 4.99 µM).

For the compound `C=C1C(=O)O[C@@H]2[C@H]1CC[C@H](C)[C@]1(O)C=CC(=O)[C@@]21C` [PARTHENIN], the pED50 was 5.89 and the EC50 is 0.34 µg/mL (≈ 1.3 µM).

In the case of `C=C1C(=O)O[C@H]2C[C@@H](C)[C@@H]3C=CC(=O)[C@@]3(C)[C@H](O)[C@H]12` (single isomer, unassigned) [MEXICANIN I], the pED50 was 5.9 and the EC50 stood at 0.33 µg/mL (≈ 1.26 µM).

For the compound `C=C(C)C(=O)O[C@H]1CC2=C[C@@H](C[C@@]3(C)O[C@@H]3[C@H]3OC(=O)C(=C)[C@@H]31)OC2=O` [ELEPHANTOPIN], the pED50 was 5.6 and the EC50 worked out at 0.94 µg/mL (≈ 2.61 µM).

In the case of `C=C[C@@]12COC(=O)C(=C)[C@@H]1[C@H]1OC(=O)C(=C)[C@@H]1[C@@H](O)C2` [VERNOLEPIN], the pED50 worked out at 5.19 and the EC50 was found to be 1.8 µg/mL (≈ 6.51 µM).

For `C=C1C(=O)O[C@H]2[C@H]1[C@H](OC(=O)/C(C)=C\C)CC(=C)[C@@H]1[C@H](O)[C@H]3O[C@@]3(C)[C@@]12O` (stereo in doubt; 20) [EUPATUNDIN], the ED50 turned out to be 0.47 µg/mL (≈ 1.25 µM) and the pED50 was determined as 6.46.

Consider `C=C[C@@]12COC(=O)C(=C)[C@@H]1[C@H]1OC(=O)C(=C)[C@@H]1[C@@H](OC(C)=O)C2` [VERNOLEPIN ACETATE], for which the pED50 was determined as 5.07 and the EC50 was found to be 2.7 µg/mL.

For the compound `C=C1C(=O)O[C@@H]2C[C@@H](C)[C@@H]3C=CC(=O)[C@@]3(C)[C@@H](O)[C@H]12` (stereo in doubt) [HELENALIN], the pED50 was 6.12 and the EC50 came to 0.2 µg/mL (≈ 0.762 µM).

Regarding `C=C[C@@]12COC(=O)C(=C)[C@@H]1[C@H]1OC(=O)C(=C)[C@@H]1[C@@H](OC(=O)C(=C)C)C2` (single isomer, unassigned) [VERNOLEPIN METHACRYLATE], the pED50 turned out to be 5.91 and the EC50 was found to be 0.42 µg/mL (≈ 1.22 µM).

Regarding `C=C1C(=O)O[C@H]2[C@H]1[C@H](OC(=O)/C(C)=C\C)C[C@@]1(CO1)[C@@H]1[C@H](O)[C@H]3O[C@@]3(C)[C@]21O`, the pED50 is 5.18 and the EC50 was found to be 2.6 µg/mL (≈ 6.63 µM).

Regarding `C=C1C(=O)O[C@H]2C[C@@H](C)[C@@H]3C=CC(=O)[C@@]3(C)C[C@H]12` (single isomer, unassigned) [AROMATICIN], the pED50 is 5.86 and the EC50 was 0.34 µg/mL (≈ 1.38 µM).

`C=C1C(=O)O[C@H]2[C@H]1[C@H](OC(=O)/C(C)=C/C)C[C@]1(CO1)[C@@H]1[C@H](O)C=C(C)[C@]21O` [EUPAROTIN] returned an ED100 of 0.21 µg/mL and a pED50 of 6.25.

With `C=C1C(=O)O[C@@H]2/C=C3\CCC4OC4(C[C@H](OC(=O)C(C)C)[C@@H]12)C(O)OC3` (some centres undefined) [VERNOMYGDIN], the pED50 was 5.39 and the EC50 stood at 1.5 µg/mL (≈ 4.12 µM).

In the case of `C=C[C@]12COC(=O)C(=C)[C@H]1[C@H](OC(C)=O)[C@H]1C(=C)C(=O)O[C@@H]1C2` [VERNOMENIN ACETATE], the pED50 is 4.58 and the EC50 worked out at 8 µg/mL.

Turning to `C=C1C(=O)O[C@@H]2[C@H]1CC[C@H](C)[C@@H]1C=CC(=O)[C@@]21C` [AMBROSIN], the pED50 is on record as 5.74 and the EC50 came out at 0.45 µg/mL (≈ 1.83 µM).

As for `C=C1C(=O)O[C@@H]2/C=C(\C)CCC=C(C)CC[C@@H]12` [COSTUNOLIDE], the pED50 is recorded as 5.61 and the EC50 turned out to be 0.57 µg/mL (≈ 2.45 µM).

Take `C=C1C(=O)O[C@H]2[C@H]1[C@@H](OC(=O)C=C(C)C)CC1=C[C@@H](C[C@@]3(C)O[C@H]23)OC1=O` [ELEPHANTIN]: the pED50 was determined as 5.49 and the EC50 was found to be 1.16 µg/mL (≈ 3.1 µM).

In the case of `C=C1C(=O)O[C@H]2[C@H]1[C@H](OC(=O)/C(C)=C\C)C[C@](O)(CCl)[C@@H]1[C@H](O)[C@H]3O[C@@]3(C)[C@]21O` (single isomer, unassigned) [EUPACHLOROXIN], the pED50 worked out at 5.08 and the EC50 turned out to be 3.6 µg/mL (≈ 8.39 µM).

Consider `C=C1C(=O)O[C@@H]2/C=C(\C)[C@H](O)CC=C(C)CC[C@@H]12` [TAMAULIPIN B], for which the pED50 is given as 4.98 and the EC50 worked out at 2.6 µg/mL (≈ 10.5 µM).

Take `C=C[C@@]12COC(=O)C(=C)[C@@H]1[C@H]1OC(=O)C(=C)[C@@H]1[C@@H](OC(=O)C(=C)CO)C2` [VERNODALIN]: the pED50 is on record as 5.3 and the EC50 was found to be 1.8 µg/mL (≈ 4.99 µM).

Take `C=C1C(=O)O[C@@H]2[C@H]1CC[C@H](C)[C@]1(O)CCC(=O)[C@@]21C` [CORONOPILIN]: the pED50 is 5.26 and the EC50 is 1.45 µg/mL (≈ 5.49 µM).

On to `C=C1C(=O)O[C@H]2[C@H]1[C@H](OC(=O)/C(C)=C\C)C[C@](O)(CCl)[C@@H]1[C@H](O)C=C(C)[C@]21O` [EUPACHLORIN], for which the pED50 stood at 6.29 and the EC50 was found to be 0.21 µg/mL (≈ 0.509 µM).

For the compound `C=C1C(=O)O[C@@H]2/C=C(\C)[C@@H](OC(C)=O)C/C=C(/C)C(O)[C@@H](OC(=O)/C(C)=C\C)[C@@H]12` (some centres undefined) [EUPATOCUNIN], the pED50 is reported as 6.57 and the EC50 was found to be 0.11 µg/mL (≈ 0.272 µM).

Turning to `C=C1C(=O)O[C@H]2[C@H]1[C@H](OC(=O)/C(C)=C\C)C[C@](O)(CCl)[C@@H]1[C@H](OC(C)=O)C=C(C)[C@]21O` [EUPACHLORIN ACETATE], the pED50 worked out at 5.21 and the EC50 was found to be 0.16 µg/mL.

As to `C=C1C(=O)O[C@H]2[C@H]1[C@H](OC(=O)/C(C)=C\C)CC(=C)[C@@H]1[C@H](O)[C@H]3O[C@@]3(C)[C@@]12O` (stereo in doubt; 28) [EUPATUNDIN], the pED50 was 5.98 and the EC50 is 0.47 µg/mL (≈ 1.25 µM).

With `C=C1C(=O)O[C@@H]2[C@H]1CC[C@H](C)[C@@H]1C[C@@H](O)C(=O)[C@@]21C`, the pED50 is reported as 5 and the EC50 is 2.65 µg/mL (≈ 10 µM).

`C=C1C(=O)O[C@H]2[C@H]1[C@H](OC(=O)/C(C)=C\C)C[C@]1(CO1)[C@@H]1[C@H](O)[C@H]3O[C@@]3(C)[C@]21O` [EUPATOROXIN]: the pED50 was 5.15 and the EC50 stood at 2.8 µg/mL (≈ 7.14 µM).

Turning to `C=C[C@@]12COC(=O)C(=C)[C@@H]1[C@@H](O)[C@@H]1C(=C)C(=O)O[C@H]1C2` [VERNOMENIN], the pED50 was 3.9 and the EC50 came to 35 µg/mL (≈ 127 µM).

Regarding `C=C1C(=O)O[C@H]2C=C(C)[C@H]3[C@@H](OC(C)=O)C[C@@](C)(O)[C@@H]3C[C@H]12` [GAILLARDIN], the pED50 is on record as 5.12 and the EC50 was determined as 2.3 µg/mL (≈ 7.51 µM).

`C=C1C(=O)O[C@@H]2/C=C(\C)[C@@H](OC(C)=O)CC=C(C)C(OC(=O)[C@]3(C)O[C@@H]3C)C(O)[C@@H]12` (some centres undefined) [EUPATOCUNOXIN]: the pED50 turned out to be 5.39 and the EC50 came to 1.7 µg/mL (≈ 4.04 µM).

Regarding `C=C1C(=O)O[C@@H]2/C=C(\C)C[C@H](O)C=C(C)CC[C@@H]12` [TAMAULIPIN A], the pED50 came to 5.29 and the EC50 was determined as 1.26 µg/mL (≈ 5.07 µM).

On to `C=C1C(=O)O[C@H]2[C@H]1[C@H](OC(=O)/C(C)=C\C)C[C@]1(CO1)[C@@H]1[C@H](OC(C)=O)C=C(C)[C@]21O` [EUPAROTIN ACETATE], for which the pED50 came to 6.28 and the EC50 was found to be 0.22 µg/mL.

`C=C1C(=O)O[C@H]2CC3=C[C@@H](C[C@]4(C)O[C@@H]4[C@@H](O)[C@H]12)OC3=O` [ELEPHANTOL]: the pED50 amounted to 3.91 and the EC50 is 36 µg/mL (≈ 123 µM).

As to `C=C1C(=O)O[C@@H]2/C=C(/CO)[C@@H](OC(C)=O)C[C@H](O)/C(C)=C\[C@@H](OC(=O)C(C)=CC)[C@@H]12` [EUPACUNOLIN], the pED50 was 5.06 and the EC50 stood at 3.7 µg/mL (≈ 8.8 µM).
